Results from patent US7910586B2, “Compositions and methods for prevention and treatment of amyloid-β peptide-related disorders” (The Rockefeller University, priority 2002, dated 2011).
Structures can show the parent of a compound that is named as a salt.

Assays:
brain Aβ40, Aβ42 and C99 = assay: Brain Aβ and C99 in wild-type guinea pigs after intrathecal osmotic minipump treatment; format: in vivo, guinea pig; settings: 2.8 mg/kg, 7 days
Protocol: After 7 days of treatment, animals were sacrificed, and their brains homogenized in 25 mM Tris 7.5, 50 mM NaCl, 1 mM DTT, 5 mM EDTA, 1 mM EGTA, and 1× protease inhibitor cocktail (Complete™, Boehringer Biochemicals). Aliquots of brain homogenate were assayed for Aβ peptide by using a sandwich ELISA according the manufacturer's recommendations (Biosource International, Camarillo, Calif.) and for C99 by immunoprecipitation and Western blot analysis using standard methods.

[1] = system: N2a cells transfected with the human Swedish APP mutation; assay: Aβ generation in N2a cells transfected with human Swedish APP and normal or ΔE9 presenilin 1 (immunoprecipitation, autoradiography, Western blot); format: cell-based, mouse; settings: for Aβ after one hour of treatment: 35S labeled N2a cells expressing human APP-Swedish
Protocol: N2a cells transfected with the human Swedish APP mutation, and with either normal human presenilin 1 or ΔE9 mutant presenilin 1 (PS1), were used for assays of compound effect on Aβ generation.
Media was added with compound concentration of 0, 10^−9, 10^−8, 10^−7 and 10^−6 M; cells were incubated overnight at 37° C. The next day, cells were incubated with ^35S-methionine and ^35S-cysteine for four hours in the presence of the compound as above.
Media and cells were separately harvested and subjected to immunoprecipitation with antibody 4G8 (Senetek, Napa, Calif.), which recognizes an epitope corresponding to residues 17-28 of Aβ. Antibody 4G8 immunoprecipitates Aβ from media, and Aβ plus full-length APP from cells. After removal of antibody 4G8 and bound Aβ from media, the supernatant was reacted with 22C11 (Chemicon International), an antibody that immunoprecipitates sAPPβ and sAPPα. Immunoprecipitates were subjected to PAGE and resolved by autoradiography according to standard methods. APP metabolites were compared by densitometry according to standard methods.
In other experiments, immunoprecipitation followed by Western blot analysis was carried out on unlabeled (no radioactive label) N2a cells, using standard methods and using 6E10 (Senetek, Napa, Calif.) or 22C11 antibodies for detection.
These immunoprecipitation experiments were repeated using a minimal treatment time, 1 hour instead of overnight.

[2] = system: rat embryonic cortical neurons; assay: Aβ production in rat primary embryonic cortical neuronal cultures; format: cell-based; settings: for production of Aβ peptides: normal rat primary neuronal cell cultures; for concentration at which significant reductions in Aβ were observed: primary cortical neuronal cultures, dose response, FIGS. 13 and 14
Excerpt: Cultures of rat embryonic cortical neurons were established from day 18 pregnant SD rats using standard techniques (Gasparini et al., 2001, J. Neurosci. 21(8):2561-2570).
The next day, cells were labeled with ^35S-methionine and cysteine for four hours in the presence of compounds as above. Media and cells were then harvested and subjected to immunoprecipitation with antibody 4G8, to detect Aβ and APP. The media was serially immunoprecipitated first with antibody 4G8 and then antibody 22C11, for detection of secreted Aβ, sAPPP and sAPPα. Immunoprecipitates were subjected to PAGE and resolved by autoradiography; APP metabolites were compared by densitometry.

[3] = system: Abl knockout (Abl−/−) 3T3 mouse fibroblasts; assay: Aβ production in Abl knockout (Abl−/−) 3T3 mouse fibroblasts; format: cell-based; settings: 5 μM or 10 μM STI-571; 0.5 μM or 1.0 μM Compound 1; similar degree as in wild-type and N2a cells
Protocol: (§1) Abl knockout (Abl−/−) 3T3 mouse fibroblasts and wild-type 3T3 mouse fibroblasts (see Liu et al., 1996, Nature 384(6606):273-6) were grown separately and to confluence in 100 mm Corning tissue culture plates. These fibroblast cell lines are permanent cell lines. […] Several other plates were exposed to either 0.5 μM or 1.0 μM Compound 1 (dissolved in DMSO) or to DMSO without Compound 1.
(§2) For the above-described cell cultures, each of the drugs or control solvents was added to a standard culture medium (DMEM+10% FBS+pen/strep) at a dilution of 1:1000 and cultures were then incubated at 37° C. for 2 hours. The contacting of cell cultures and incubation with inhibitors and solvent, as described above, constituted “pretreatment” of cells.
(§3) The first culture medium was then removed and the cell cultures were rinsed with a second culture medium lacking methionine, cysteine and glutamate. The cell cultures were incubated with this culture medium for 30 minutes (to stimulate subsequent uptake of amino acids). Then the second culture medium was exchanged for fresh first culture medium containing ^35S-labeled methionine and cysteine (NEN Express label 50 μl/ml) and unlabeled glutamine (final concentration 2 mM) and with inhibitors as described above, and incubated for 4 hours at 37° C. […]

[4] = system: rat embryonic cortical neurons; assay: Aβ production in rat primary embryonic cortical neuronal cultures; format: cell-based
[5] = system: wild-type 3T3 mouse fibroblasts; assay: Aβ production in wild-type 3T3 mouse fibroblasts; format: cell-based; settings: 5 μM or 10 μM STI-571; 0.5 μM or 1.0 μM Compound 1; similar degree as in Abl−/− and N2a cells
Protocol: as §1, §2, §3

[6] = system: N2a cells expressing Swedish variant of human APP and the PS1 mutation; assay: Mass spectrometry (Ciphergen ProteinChip, SELDI-TOF) of Aβ40 and Aβ42 in media from N2a cells; format: cell-based, mouse; settings: FIG. 5
Protocol: Mass spectrometry was carried out on media from N2a cells to detect Aβ40 and Aβ42 peptides using the CiphergenProteinChip System (Ciphergen Biosystems Inc., Fremont, Calif.), which is based on Seldi and time-of-flight mass spectrometry, using standard protocols as set out by the manufacturer. The experimental procedures were the same as those disclosed above for immunoprecipitation/Western blotting, without metabolic labeling. […] Aliquots of detergent treated media were contacted to a metal chip that was previously contacted with an antibody, such as 6E10. The antibody binds human APP metabolites, including Aβ, in the applied sample. Detection of bound antigen followed a laser pulse that dissociated antigen from antibody.
Aβ peptides were resolved graphically as peaks of various heights, situated on an x-axis denoting molecular mass. Thus, Aβ40 and Aβ42 were resolved separately at approximately 4333 and 4519 daltons, respectively. The relative heights or areas under the peaks in a given spectrum denoted the relative concentrations of the detected species. Peaks corresponding to the same species, as conveyed by molecular mass, were compared among different spectra, reflecting different samples, to measure relative quantities of Aβ among a set of samples.

mΔe-Notch = assay: Notch cleavage in N2a cells transfected with mΔe-Notch; format: cell-based, mouse; settings: at levels that strongly inhibit Aβ-formation; FIGS. 17 and 18
Excerpt: N2a cells were transfected with a constitutively active truncated form of Notch, mouse “deleted-extracellular” Notch (mΔe-Notch), which supplies a direct substrate for γ-secretase (De Strooper et al., 1999, Nature 398: 518-522).

γ-secretase = assay: Isolated γ-secretase activity: Aβ release (ELISA) from membranes of N2a cells expressing recombinant C99; format: biochemical, mouse; settings: membranes from N2a cells expressing C99, with ATP; FIG. 4
Protocol: For the assay of isolated γ-secretase activity, membranes were isolated from N2a cells expressing a recombinant γ-secretase substrate, C99, according to the methods of Zhang et al. (2001, Biochemistry 40: 5049-5055). […] Also, to determine whether ATP was primarily responsible for stimulating γ-secretase activity, the previous energy regenerating system was substituted with one designed to sustain concentrations of ATP alone but not GTP. Aβ release from isolated membranes was determined by ELISA (Biosource International, Camarillo, Calif.).

Row | SMILES | appearance of animals (brain Aβ40, Aβ42 and C99) | full-length βAPP levels (brain Aβ40, Aβ42 and C99; FIG. 16C) | Aβ after one hour of treatment ([1]; FIGS. 6 and 7) | IC50 ([1]; N2a cells expressing APP and either normal human presenilin 1 or ΔE9 mutant presenilin 1, read-out: IC50 (inhibited total levels of Aβ by 50%)) [nM] | production of Aβ peptides [2] | concentration at which significant reductions in Aβ were observed [2] [µM] | secretion of soluble APP-α ([2]; primary neuronal cells cultured from rat brain, FIG. 9) | levels of Aβ in cells ([2]; rat cortical neurons) | levels of Aβ in media ([2]; rat cortical neurons, FIG. 8A, FIG. 10) | total cellular APP ([2]; rat cortical neurons, FIG. 9) | total sAPP ([2]; rat cortical neurons, FIG. 9) | Aβ production [3] | cytotoxicity [4] | Aβ production [5] | Aβ40 level [6] | Aβ42 level [6] | cleavage of mΔe-Notch to form Notch intracellular domain (NICD) (mΔe-Notch) | Aβ generation in isolated membranes (γ-secretase) | APP levels ([1]; intact N2a cells expressing Swedish variant of human APP, FIGS. 6 and 7)
1 | CSc1cccc(Nc2ncc3cc(-c4c(Cl)cccc4Cl)c(=O)n(C)c3n2)c1 [Compound 1] | healthy and active | do not change | dose-dependent decrease | < 1000 | inhibit | 0.5 | consistent secretion | reduced | reduced | not reduced significantly | not reduced significantly | inhibited | not cytotoxic | inhibited | dramatically reduced | dramatically reduced | unaffected | dose-dependent decrease | –
2 | Cc1ccc(NC(=O)c2ccc(CN3CCN(C)CC3)cc2)cc1Nc1nccc(-c2cccnc2)n1 [STI-571, imatinib mesylate, reference compound] | – | – | dose-dependent decrease | – | inhibit | 5 | – | – | – | – | – | inhibited | – | inhibited | – | – | – | – | do not change
